Measurements taken from ChEMBL document CHEMBL4715696, “In vitro synergistic anticancer activity of the combination of T-type calcium channel blocker and chemotherapeutic agent in A549 cells” (Bioorg Med Chem Lett, 2016).

Assays:
A549 [1] = experiment: Upregulation of p27KIP1 protein expression in human A549 cells after 48 hrs by Western blot analysis; type: functional, cell-based; conditions: dose 2.5-10 µM
A549 [2] = experiment: Induction of cell cycle arrest in human A549 cells assessed as accumulation at G1 phase at 5 uM after 24 hrs by flow cytometric analysis (reference value: 53.1%); type: functional
[3] = Upregulation of p27KIP1 protein expression in human A549 cells assessed as fold change in expression at 5 uM after 48 hrs by Western blot analysis (reference value: 0.48); type: functional
A549 [4] = experiment: Potentiation of etoposide-induced cell cycle arrest in human A549 cells assessed as accumulation at sub G1 phase at 5 uM in presence of etoposide after 48 hrs by flow cytometric analysis (Rvb =33 %); type: functional
A549 [5] = experiment: Potentiation of etoposide-induced apoptosis in human A549 cells assessed as late apoptotic cells at 10 uM incubated for 48 hrs by AnnexinV-FITC/propidium iodide staining based flow cytometry (reference value: 12.6%); type: functional
A549 [6] = experiment: Decrease in cell cycle associated protein expression in human A549 cells assessed as fold change in cyclin E expression at 10 uM after 6 hrs by Western blot analysis (reference value: 0.55); type: functional
[7] = Increase in recruitment of […] p27KIP1 to CDK6 in human A549 cells assessed as fold change at 10 uM incubated for 12 hrs by immunoprecipitation/immunoblot analysis (reference value: 0.56); type: functional
A549 [8] = experiment: Decrease in cell cycle associated protein expression in human A549 cells assessed as fold change in cyclin D1 expression at 10 uM after 12 hrs by Western blot analysis (reference value: 0.68); type: functional
CYP2D6 = CYP2D6 (Homo sapiens, UniProt P10635); experiment: Inhibition of human CYP2D6 assessed as residual activity at 10 uM measured after 15 mins relative to control; type: ADME; conditions: read-out: Activity
[9] = Metabolic stability in rat plasma assessed as parent compound remaining at 10 uM measured after 30 mins; type: ADME, cell-free; conditions: read-out: Stabilty
A549 [10] = experiment: Potentiation of etoposide-induced cell cycle arrest in human A549 cells assessed as accumulation at G2/M phase at 2.5 uM in presence of etoposide after 48 hrs by flow cytometric analysis (Rvb =18.9%); type: functional
A549 [11] = experiment: Induction of cell cycle arrest in human A549 cells assessed as accumulation at G2/M phase at 2.5 uM after 48 hrs by flow cytometric analysis (Rvb =22.1%); type: functional
A549 [12] = experiment: Induction of cell cycle arrest in human A549 cells assessed as accumulation at S phase at 5 uM after 48 hrs by flow cytometric analysis (reference value: 10.4 to 12%); type: functional
A549 [13] = experiment: Potentiation of etoposide-induced cell cycle arrest in human A549 cells assessed as accumulation at sub G1 phase at 10 uM in presence of etoposide after 48 hrs by flow cytometric analysis (Rvb =33 %); type: functional
A549 [14] = experiment: Induction of apoptosis in human A549 cells assessed as late apoptotic cells at 10 uM incubated for 48 hrs by AnnexinV-FITC/propidium iodide staining based flow cytometry (reference value: 4%); type: functional
A549 [15] = experiment: Decrease in cell cycle associated protein expression in human A549 cells assessed as fold change in cyclin D3 expression at 2.5 uM after 48 hrs by Western blot analysis (reference value: 0.73); type: functional
A549 [16] = experiment: Potentiation of etoposide-induced apoptosis in human A549 cells assessed as early apoptotic cells at 10 uM incubated for 48 hrs by AnnexinV-FITC/propidium iodide staining based flow cytometry (reference value: 19.1%); type: functional
A549 [17] = experiment: Cytotoxicity against human A549 cells assessed as reduction in cell viability by MTT assay; type: functional, cell-based
A549 [18] = experiment: Decrease in cell cycle associated protein expression in human A549 cells assessed as reduction in CDK2 expression at 10 uM by Western blot analysis; type: functional, cell-based; conditions: time 6-48 hrs, TDE = time-dependent effect
A549 [19] = experiment: Potentiation of etoposide-induced cell cycle arrest in human A549 cells assessed as accumulation at S phase at 10 uM in presence of etoposide after 48 hrs by flow cytometric analysis (Rvb =12.3%); type: functional
A549 [20] = experiment: Induction of cell cycle arrest in human A549 cells assessed as accumulation at G1 phase at 10 uM after 48 hrs by flow cytometric analysis (reference value: 65.5%); type: functional
A549 [21] = experiment: Decrease in cell cycle associated protein expression in human A549 cells assessed as fold change in CDK4 expression at 5 uM after 48 hrs by Western blot analysis (reference value: 0.62); type: functional
A549 [22] = experiment: Decrease in cell cycle associated protein expression in human A549 cells assessed as reduction in CDK4 expression at 10 uM by Western blot analysis; type: functional, cell-based; conditions: time 6-48 hrs, TDE = time-dependent effect
A549 [23] = experiment: Potentiation of etoposide-induced cell cycle arrest in human A549 cells assessed as accumulation at S phase at 2.5 uM in presence of etoposide after 48 hrs by flow cytometric analysis (Rvb =12.3%); type: functional
A549 [24] = experiment: Decrease in cell cycle associated protein expression in human A549 cells assessed as fold change in cyclin E expression at 5 uM after 48 hrs by Western blot analysis (reference value: 0.37); type: functional
A549 [25] = experiment: Induction of cell cycle arrest in human A549 cells assessed as accumulation at G2/M phase at 5 uM after 24 hrs by flow cytometric analysis (reference value: 21.6%); type: functional
A549 [26] = experiment: Decrease in cell cycle associated protein expression in human A549 cells assessed as fold change in cyclin D2 expression at 10 uM after 12 hrs by Western blot analysis (reference value: 0.77); type: functional
A549 [27] = experiment: Decrease in cell cycle associated protein expression in human A549 cells assessed as fold change in CDK6 expression at 10 uM after 12 hrs by Western blot analysis (reference value: 0.7); type: functional
A549 [28] = experiment: Decrease in cell cycle associated protein expression in human A549 cells assessed as fold change in cyclin E expression at 10 uM after 24 hrs by Western blot analysis (reference value: 0.55); type: functional
A549 [29] = experiment: Decrease in cell cycle associated protein expression in human A549 cells assessed as fold change in cyclin E expression at 2.5 uM after 48 hrs by Western blot analysis (reference value: 0.37); type: functional
A549 [30] = experiment: Induction of cell cycle arrest in human A549 cells assessed as accumulation at G1 phase at 2.5 uM after 48 hrs by flow cytometric analysis (Rvb =65.5%); type: functional
A549 [31] = experiment: Decrease in cell cycle associated protein expression in human A549 cells assessed as fold change in CDK6 expression at 2.5 uM after 48 hrs by Western blot analysis (reference value: 1.05); type: functional
A549 [32] = experiment: Decrease in cell cycle associated protein expression in human A549 cells assessed as reduction in cyclin D3 expression at 10 uM by Western blot analysis; type: functional, cell-based; conditions: time 6-48 hrs, TDE = time-dependent effect
A549 [33] = experiment: Decrease in cell cycle associated protein expression in human A549 cells assessed as fold change in CDK2 expression at 10 uM after 36 hrs by Western blot analysis (reference value: 0.79); type: functional
A549 [34] = experiment: Decrease in cell cycle associated protein expression in human A549 cells assessed as fold change in cyclin D3 expression at 10 uM after 36 hrs by Western blot analysis (reference value: 1.09); type: functional

CYP2D6, sequence (P10635 whole entry): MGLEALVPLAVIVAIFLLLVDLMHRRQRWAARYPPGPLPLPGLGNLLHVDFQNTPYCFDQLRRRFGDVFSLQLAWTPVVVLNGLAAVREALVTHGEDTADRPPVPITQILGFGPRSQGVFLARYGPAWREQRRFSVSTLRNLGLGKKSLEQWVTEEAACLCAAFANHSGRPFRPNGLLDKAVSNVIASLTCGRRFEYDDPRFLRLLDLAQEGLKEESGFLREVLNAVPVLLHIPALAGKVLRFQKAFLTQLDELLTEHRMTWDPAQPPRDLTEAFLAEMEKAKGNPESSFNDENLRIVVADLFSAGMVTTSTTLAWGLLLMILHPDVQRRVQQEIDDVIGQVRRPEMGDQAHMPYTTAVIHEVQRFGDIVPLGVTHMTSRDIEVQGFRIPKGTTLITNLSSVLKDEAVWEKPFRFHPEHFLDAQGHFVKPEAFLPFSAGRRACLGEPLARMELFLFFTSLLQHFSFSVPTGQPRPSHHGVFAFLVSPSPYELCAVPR

Compound: CN(C)C(=O)NCCCN(C)C1=Nc2ccccc2C(CC(=O)NCc2ccc(F)cc2)N1c1ccc(C2CCCCC2)cc1 (stereo not given)
- Activity (A549 [1]): Dose-dependent effect
- Activity (A549 [2]): 63.6%
- fold change (FC) [3]: 0.76
- Activity (A549 [4]): 43.4%
- Activity (A549 [5]): 12.9%
- fold change (FC) (A549 [6]): 0.53
- fold change (FC) [7]: 0.68
- fold change (FC) (A549 [8]): 0.35
- activity at 0.25 h, 10 µM (CYP2D6): 78.3%
- remaining at 0.5 h, 10 µM [9]: 49.4%
- Activity (A549 [10]): 18.5%
- Activity (A549 [11]): 19.4%
- Activity (A549 [12]): 8.3%
- Activity (A549 [13]): 83.1%
- Activity (A549 [14]): 4.3%
- fold change (FC) (A549 [15]): 0.74
- Activity (A549 [16]): 49.1%
- IC50 (A549 [17]): 7.3 µM
- Activity (A549 [18]): Tde
- Activity (A549 [19]): 6.2%
- Activity (A549 [20]): 77.4%
- fold change (FC) (A549 [21]): 0.64
- Activity (A549 [22]): Tde
- Activity (A549 [23]): 10.7%
- fold change (FC) (A549 [24]): 0.49
- Activity (A549 [25]): 19.3%
- fold change (FC) (A549 [26]): 0.36
- fold change (FC) (A549 [27]): 0.64
- fold change (FC) (A549 [28]): 0.08
- fold change (FC) (A549 [29]): 0.44
- Activity (A549 [30]): 69.3%
- fold change (FC) (A549 [31]): 0.59
- Activity (A549 [32]): Tde
- fold change (FC) (A549 [33]): 0.71
- fold change (FC) (A549 [34]): 0.96
